Test system: L-amino acid oxidase
Assay: Substrate specificity: specific activity and Km (Lineweaver-Burk) with various L-amino acids, H2O2 detected with ABTS and CiP
Assay type: biochemical, Trichoderma harzianum
Details: phosphate buffer pH 8.5, room temperature; for Km: Lineweaver-Burk plots; for Specific Activity: 20 minutes
Protocol: The specific activity of the purified L-amino acid oxidase was 16 U/mg determined in a 50 mM phosphate buffer at pH 8.5, 20° C. with 1 mM L-arginine as substrate. One unit of enzyme will form 1 μmole of hydrogen peroxide per minute. The amount of protein is quantified assuming that a solution of the L-amino acid oxidase having an optical density of 1 determined at 280 nm contains 1 mg of protein/ml. The L-amino acid oxidase yield was approx. 50 mg of pure protein per litre of culture medium.
In the following characterization experiments, detection of H2 O2 was carried out using a Coprinus cinereus peroxidase (CiP), obtained according to WO 92/16634, at a level of 4.5 PODU/ml, and 0.4 mM ABTS in phosphate buffer at pH 7.0. The hydrogen peroxide concentrations were determined relative to a freshly prepared hydrogen peroxide standard solution.
The activity of the L-amino acid oxidase was determined with various L-amino acids as substrates. The L-amino acid oxidase was incubated with substrate in a phosphate buffer at pH 8.5 and room temperature for 20 minutes. Generated hydrogen peroxide was detected using ABTS and CiP as described above. The specific activity was determined as described in Example 2 above.
Km values for the various substrates were determined by plotting values of 1/v versus 1/s (Lineweaver-Burk plots).

| SMILES | Km [mM] | Specific Activity (Substrate Conc. 80 (m/M)) [U/mg] | Specific Activity (Substrate Conc. 1 (m/M)) [U/mg] | Specific Activity (Substrate Conc. 10 (m/M)) [U/mg] |
| --- | --- | --- | --- | --- |
| N[C@@H](Cc1ccccc1)C(=O)O [L-phenylalanine] | 25 | 25 |  |  |
| CSCC[C@H](N)C(=O)O [L-methionine] | 15 | 8 |  |  |
| N=C(N)NCCC[C@H](N)C(=O)O [L-arginine] | 1.2 |  | 16 | 30 |
| CC(C)C[C@H](N)C(=O)O [L-leucine] | 40 | 16 |  |  |
| NC(=O)C[C@H](N)C(=O)O [L-asparagine] | 20 | 7 |  |  |
| NCCCC[C@H](N)C(=O)O [L-lysine] | 0.2 |  | 7 |  |
